Data on 38 compounds can be found in ChEMBL document CHEMBL1949628, “Discovery of aminopiperidine-based Smac mimetics as IAP antagonists” (Bioorg Med Chem Lett, 2012).

Each structure is given as a SMILES string.

Data set [1] has as its target T1, Baculoviral IAP repeat-containing protein 2 (Homo sapiens, UniProt Q13490). In words: Antagonist activity at GST-tagged BIR3 domain of cIAP1 using AbuRPFK-5FAM after 20 mins by fluorescence polarization assay. It is filed as functional.
For data set [2], the system named is MDA-MB-231. Nature of the data set: Antiproliferative activity against human MDA-MB-231 cells assessed as cell growth at 11.3 uM after 48 hrs by alamar blue assay relative to control. It is filed as functional. The note with it: MDA-MB-231, 48 h, read-out: Activity. (In general: Resazurin is reduced to fluorescent resorufin, in cell work by metabolically active cells.)

Data set [3] relates to MDA-MB-231. In words: Antiproliferative activity against human MDA-MB-231 cells assessed as cell growth at 0.0465 uM after 48 hrs by alamar blue assay relative to control. It is filed as functional. The note with it: MDA-MB-231, 48 h, read-out: Activity.
In data set [4] the test system is MDA-MB-231. Nature of the data set: Antiproliferative activity against human MDA-MB-231 cells assessed as cell growth at 0.00172 uM after 48 hrs by alamar blue assay relative to control. It is filed as functional. As to conditions: MDA-MB-231, 48 h, read-out: Activity.
Data set [5] has as its system MDA-MB-231. In words: Antiproliferative activity against human MDA-MB-231 cells assessed as cell growth at 0.0155 uM after 48 hrs by alamar blue assay relative to control. It is filed as functional. As to conditions: MDA-MB-231, 48 h, read-out: Activity.
The target of data set [6] is T2, E3 ubiquitin-protein ligase XIAP (Homo sapiens, UniProt P98170). Nature of the data set: Binding affinity to GST-tagged BIR3 domain of XIAP by isothermal titration calorimetry.
The subject of data set [7] is MDA-MB-231. In words: Antiproliferative activity against human MDA-MB-231 cells assessed as cell growth at 1.25556 uM after 48 hrs by alamar blue assay relative to control. It is filed as functional. As to conditions: MDA-MB-231, 48 h, read-out: Activity.
In data set [8] the test system is MDA-MB-231. Nature of the data set: Antiproliferative activity against human MDA-MB-231 cells assessed as cell growth at 0.13951 uM after 48 hrs by alamar blue assay relative to control. It is filed as functional. As to conditions: MDA-MB-231, 48 h, read-out: Activity.
For data set [9], the system named is MDA-MB-231. In words: Antiproliferative activity against human MDA-MB-231 cells assessed as cell growth at 0.41852 uM after 48 hrs by alamar blue assay relative to control. It is filed as functional. As to conditions: MDA-MB-231, 48 h, read-out: Activity.
The subject of data set [10] is MDA-MB-231. Nature of the data set: Antiproliferative activity against human MDA-MB-231 cells assessed as cell growth at 0.00517 uM after 48 hrs by alamar blue assay relative to control. It is filed as functional. The note with it: MDA-MB-231, 48 h, read-out: Activity.
For data set [11], the target named is T1, Baculoviral IAP repeat-containing protein 2. Nature of the data set: Antagonist activity at cIAP1 in human MDA-MB-231 cells assessed as cIAP1 degradation after 1 hr by ELISA. It is filed as functional, cell-based. (In general: In an ELISA, binding on a coated surface is turned into a signal by an enzyme label.)
Data set [12] addresses T2, E3 ubiquitin-protein ligase XIAP. In words: Antagonist activity at GST-tagged BIR3 domain of XIAP using AbuRPFK-5FAM after 20 mins by fluorescence polarization assay. It is filed as functional. A general note: In fluorescence polarisation assays a small probe gives low polarisation when free and higher when bound to something large.
The test system of data set [13] is MDA-MB-231. In words: Antiproliferative activity against human MDA-MB-231 cells after 48 hrs by alamar blue assay. As to conditions: MDA-MB-231, 48 h. It is filed as functional.
The test system of data set [14] is MDA-MB-231. Nature of the data set: Antiproliferative activity against human MDA-MB-231 cells assessed as cell growth at 3.76667 uM after 48 hrs by alamar blue assay relative to control. It is filed as functional. The note with it: MDA-MB-231, 48 h, read-out: Activity.
Data set [15] is described as follows: Lipophilicity, log D of the compound. It is filed as physicochemical. The note with it: octanol/water.

As usually defined, the IC50 is the concentration that inhibits the measured activity by half. Low values mean greater potency in that assay, high ones weaker potency in that assay. The compound `CN[C@@H](C)C(=O)N[C@H](C(=O)N[C@H]1CCN(CCc2ccccc2)C1)C1CCCCC1` returned an IC50 in data set [1] of 500 nM. This counts as sub-micromolar.
As a reminder, the Kd is the concentration at which binding is half-saturated. The term EC50 denotes the concentration giving half of the maximal effect. A word on the GI50: it is the concentration giving 50% growth inhibition. Usually logD stands for lipophilicity at a set pH, counting ionised and neutral species. High values mean higher lipophilicity, low ones lower lipophilicity. In the case of `CN[C@@H](C)C(=O)N[C@H](C(=O)N[C@H]1C[C@@H]2CC[C@H]1N(CCc1ccccc1)C2)C1CCCCC1`, the IC50 was found to be 4 nM in [1] and 365 nM in data set [12]. In the data set with MDA-MB-231 [2], the growth at 11.3 µM was found to be 8.61%. For the same compound, the growth at 0.0465 µM with MDA-MB-231 [3] came out at 73.5%. Besides, the growth at 0.00172 µM with MDA-MB-231 [4] was 97%. Further, the growth at 0.0155 µM with MDA-MB-231 [5] was 84%. The same compound showed an equilibrium dissociation constant (Kd) in data set [6] of 900 nM. For the same compound, in the data set on MDA-MB-231 [7], the growth at 1.25556 µM is -12.2%. Besides, in the data set on MDA-MB-231 [8], the growth at 0.13951 µM came to 37.5%. Also, in the data set with MDA-MB-231 [9], the growth at 0.41852 µM was determined as 3.61%. In the data set with MDA-MB-231 [10], the growth at 0.00517 µM worked out at 82.2%. The EC50 in data set [11] came out at 5 nM. This compound came in with a GI50 with MDA-MB-231 [13] of 100 nM. The growth at 3.76667 µM in the data set with MDA-MB-231 [14] was -11%. Further, the logD in [15] is 1.64.
In data set [1], `CN[C@@H](C)C(=O)N[C@H](C(=O)N[C@H]1CCN(Cc2ccccc2)C1)C1CCCCC1` displayed an IC50 of 3380 nM. This lies in the single-digit micromolar range.
Same read-out and setting: the value for `CN[C@@H](C)C(=O)N[C@H](C(=O)N[C@H]1CCCN(C(=O)c2ccccc2)C1)C1CCCCC1` was 3360 nM.
The compound `CN[C@@H](C)C(=O)N[C@H](C(=O)N[C@H]1CCCN(CCc2cccc(OC)c2)C1)C(C)(C)C` returned an IC50 in data set [1] of 52 nM. Also, the EC50 in data set [11] was 164 nM.
Take `CN[C@@H](C)C(=O)N[C@H](C(=O)N[C@H]1CCCN(Cc2ccccc2)C1)C1CCCCC1`: the midpoint of inhibition in data set [1], the IC50, lay at 1690 nM.
The same measure, in the same setting: the figure for `CN[C@@H](C)C(=O)N[C@H](C(=O)N[C@H]1CCN(C(=O)Cc2ccccc2)C1)C1CCCCC1` is 780 nM.
Still for that read-out and setting: the figure for `CN[C@@H](C)C(=O)N[C@H](C(=O)N[C@H]1CCN(C(=O)OCc2ccccc2)C1)C1CCCCC1` is 740 nM.
Turning to `CN[C@@H](C)C(=O)N[C@H](C(=O)N[C@H]1CCCN(CCc2ccc([N+](=O)[O-])cc2)C1)C(C)(C)C`, the IC50 in data set [1] worked out at 32 nM. Moreover, in data set [11], the EC50 amounted to 60 nM.
In data set [1], `CN[C@@H](C)C(=O)N[C@H](C(=O)N[C@H]1CCCN(CCc2c[nH]c3ccccc23)C1)C(C)(C)C` showed an IC50 of 115 nM. Besides, the EC50 in data set [11] was found to be 185 nM.
For `CN[C@@H](C)C(=O)N[C@H](C(=O)N[C@H]1CCCN(CCc2ccccc2F)C1)C1CCCCC1`, in that order: 33 nM and 104 nM.
Consider `CN[C@@H](C)C(=O)N[C@H](C(=O)N[C@H]1CCCN(CCc2ccccc2)C1)C1CCCCC1`, for which the IC50 in [1] is 40 nM; in data set [12] it was more than 8000 nM. Moreover, the EC50 in data set [11] was determined as 113 nM. Besides, the GI50 in the data set on MDA-MB-231 [13] was found to be 1010 nM.
For the compound `CN[C@@H](C)C(=O)N[C@H](C(=O)N[C@H]1CCCN(C(=O)OCc2ccccc2)C1)C1CCCCC1`, 450 nM corresponded to half-maximal inhibition in data set [1] (IC50).
`CN[C@@H](C)C(=O)N[C@H](C(=O)N(C)[C@H]1CCCN(CCc2ccccc2)C1)C1CCCCC1` came in with an IC50 in [1] of 44 nM.
Same read-out and setting: the figure for `CN[C@@H](C)C(=O)N[C@H](C(=O)N[C@H]1CCCN(CCCc2ccccc2)C1)C1CCCCC1` is 790 nM.
Regarding `CN[C@@H](C)C(=O)N[C@H](C(=O)N[C@H]1CCCN(CCc2ccc(Br)cc2)C1)C(C)(C)C`, in [1], the midpoint of inhibition, the IC50, lay at 24 nM. For the same compound, in data set [11], the concentration for a half-maximal effect (EC50) came out at 71 nM.
For `CN[C@@H](C)C(=O)N[C@H](C(=O)N[C@H]1CCCN(CCc2ccccc2OC)C1)C(C)(C)C`, in that order: 50 nM and 156 nM.
In the same order, the values of `CN[C@@H](C)C(=O)N[C@H](C(=O)N[C@H]1CCCN(CCc2ccc(F)cc2)C1)C1CCCCC1` are 18 nM and 58 nM.
Turning to `CN[C@@H](C)C(=O)N[C@H](C(=O)N[C@H]1CCCCN(Cc2ccccc2)C1)C1CCCCC1`, 270 nM corresponded to half-maximal inhibition in data set [1] (IC50).
On the same count and under the same terms, the value for `CN[C@@H](C)C(=O)N[C@H](C(=O)N[C@H]1CCCCN(CCc2ccccc2)C1)C1CCCCC1` was 80 nM; that for `CN[C@@H](C)C(=O)N[C@H](C(=O)N[C@H]1CCCN(CC(c2ccccc2)c2ccccc2)C1)C1CCCCC1` was 62 nM; that for `CN[C@@H](C)C(=O)N[C@H](C(=O)N[C@H]1CCCN(S(=O)(=O)Cc2ccccc2)C1)C(C)(C)C` was 3890 nM.
Consider `CN[C@@H](C)C(=O)N[C@H](C(=O)N[C@H]1CCCN(CCc2ccc(C(F)(F)F)cc2)C1)C(C)(C)C`, for which, in data set [1], the IC50 was 49 nM. Moreover, the EC50 in data set [11] was 300 nM.
As to `CN[C@@H](C)C(=O)N[C@H](C(=O)N1CC[C@H]2CCN(CCc3ccccc3)C[C@H]21)C1CCCCC1`, in [15], the pH-dependent lipophilicity (logD) was found to be 2.61.
`CN[C@@H](C)C(=O)N[C@H](C(=O)N[C@H]1CCCN(CCc2ccc(Cl)cc2)C1)C(C)(C)C` registered an IC50 in [1] of 24 nM. Also, the EC50 in [11] worked out at 117 nM.
In the same order, the values of `CN[C@@H](C)C(=O)N[C@H](C(=O)N[C@H]1CCCN(CCc2ccc(C)cc2)C1)C(C)(C)C` are 30 nM and 60 nM.
`CN[C@@H](C)C(=O)N[C@H](C(=O)N[C@H]1CCCN([C@@H]2CCCc3ccccc32)C1)C1CCCCC1` gave an IC50 in data set [1] of 1990 nM.
Same read-out and setting: the value for `CN[C@@H](C)C(=O)N[C@H](C(=O)N[C@H]1CCCN(CCc2ccccc2)C1)C(C)(C)C` was 26 nM; that for `CN[C@@H](C)C(=O)N[C@H](C(=O)N[C@H]1CCN(C(=O)c2ccccc2)C1)C1CCCCC1` was 5020 nM.
For `CN[C@@H](C)C(=O)N[C@H](C(=O)N[C@H]1CCCN(CCc2ccncc2)C1)C(C)(C)C`, it took 593 nM to reach half-maximal inhibition in data set [1] (IC50). Also, the EC50 in data set [11] was more than 370 nM.
For the compound `CN[C@@H](C)C(=O)N[C@H](C(=O)N[C@H]1CCCN(CCc2ccc(O)cc2)C1)C(C)(C)C`, in data set [1], the IC50 was found to be 42 nM. Further, in data set [11], the EC50 amounted to 68 nM.
In the same order, the values of `CN[C@@H](C)C(=O)N[C@H](C(=O)N[C@H]1CCCN(CCc2ccc(F)cc2)C1)C(C)(C)C` are 20 nM and 60 nM.
As to `CN[C@@H](C)C(=O)N[C@H](C(=O)N[C@H]1CCCN(C(=O)Cc2ccccc2)C1)C1CCCCC1`, the IC50 in data set [1] worked out at 130 nM.
The same measure, in the same setting: the figure for `CN[C@@H](C)C(=O)N[C@H](C(=O)N[C@H]1CCCN(S(=O)(=O)c2ccccc2)C1)C(C)(C)C` is 5750 nM.
In data set [1], `CN[C@@H](C)C(=O)N[C@H](C(=O)N[C@H]1CCCN(CCc2ccc(OC)cc2)C1)C(C)(C)C` returned an IC50 of 90 nM. Also, in data set [11], the EC50 came out at 158 nM.
For `CN[C@@H](C)C(=O)N[C@H](C(=O)N[C@H]1CCCN(CCc2ccccn2)C1)C(C)(C)C`, in that order: 301 nM and more than 370 nM.
For `CN[C@@H](C)C(=O)N[C@H](C(=O)N[C@H]1CCCN(CCc2cccc(F)c2)C1)C1CCCCC1`, in that order: 68 nM and 279 nM.
For `CN[C@@H](C)C(=O)N[C@H](C(=O)N[C@H]1CCN(CCCc2ccccc2)C1)C1CCCCC1`, in data set [1], half-maximal inhibition (IC50) was put at 740 nM.
